Results taken from ChEMBL document CHEMBL1153187 (Bioorg Med Chem Lett, 2010).

Legend:
Leishmania amazonensis [1] = test: Antileishmanial activity against Leishmania amazonensis MHOM/BR/76/LTB-012 axenic amastigotes by MTT assay
[2] = Selectivity index, ratio of IC50 for BALB/c macrophages to IC50 for Leishmania amazonensis (MHOM/BR/76/LTB-012)
[3] = Toxicity against BALB/c mouse macrophage by MTT assay; type: cell-based; details: mouse macrophages
Leishmania peruviana = test: Antileishmanial activity against Leishmania peruviana MHOM/PE/LCA08 promastigotes infected in mouse macrophage by MTT assay; type: functional, organism-based
Leishmania amazonensis [4] = test: Antileishmanial activity against Leishmania amazonensis LV79 MPRO/BR/72/M1841 infected in BALB/c mouse assessed as lesion diameter at 5 mg/kg after 4 weeks; type: functional
Leishmania amazonensis [5] = test: Antileishmanial activity against Leishmania amazonensis LV79 MPRO/BR/72/M1841 infected in BALB/c mouse assessed as reduction in parasite burden at 5 mg/kg after 6 weeks; type: functional; parameters: scale not given: the % may be the effect or the level left
Leishmania amazonensis [6] = test: Antileishmanial activity against Leishmania amazonensis LMA CL1 amastigotes infected in mouse macrophage by MTT assay; type: functional, organism-based
Leishmania braziliensis = test: Antileishmanial activity against Leishmania braziliensis MHOM/PE/PER006 promastigotes infected in mouse macrophage by MTT assay; type: functional, organism-based
Leishmania amazonensis [7] = test: Antileishmanial activity against Leishmania amazonensis LV79 MPRO/BR/72/M1841 infected in BALB/c mouse assessed as lesion diameter at 33 mg/kg after 4 weeks; type: functional, organism-based; parameters: dose 33 mg/kg
Leishmania amazonensis [8] = test: Antileishmanial activity against Leishmania amazonensis LV79 MPRO/BR/72/M1841 infected in BALB/c mouse assessed as reduction in parasite burden at 33 mg/kg after 7 weeks; type: functional, organism-based; parameters: dose 33 mg/kg; scale not given: the % may be the effect or the level left
Leishmania amazonensis [9] = test: Antileishmanial activity against Leishmania amazonensis LV79 MPRO/BR/72/M1841 infected in BALB/c mouse assessed as reduction in parasite burden at 33 mg/kg after 4 weeks; type: functional, organism-based; parameters: dose 33 mg/kg; scale not given: the % may be the effect or the level left
Leishmania amazonensis [10] = test: Antileishmanial activity against Leishmania amazonensis LV79 MPRO/BR/72/M1841 infected in BALB/c mouse assessed as reduction in parasite burden at 5 mg/kg after 4 weeks; type: functional; parameters: scale not given: the % may be the effect or the level left

Compound | IC50 (Leishmania amazonensis [1]) | Ratio IC50 [2] | IC50 [3] | further results
C=CCOc1cc(OC)c(C(=O)/C=C/c2ccc3c(c2)OCO3)c(OCC=C)c1 | 6.6 µM |  |  | 
C=CCOc1cc(OC)c(C(=O)/C=C/c2ccncc2)c(OCC=C)c1 | 0.6 µM |  |  | 
COc1cc(/C=C/C(=O)c2c(O)cc(O)cc2OC)ccc1O | 14.9 µM |  |  | 
COc1cc(/C=C/C(=O)c2c(O)cc(O)cc2OC)cc(OC)c1OC | 9.7 µM |  |  | 
COc1cc(O)cc(O)c1C(=O)/C=C/c1ccccc1F | 11.8 µM | 1.4 | 16 µM | 
C=CCOc1cc(OC)c(C(=O)/C=C/c2ccc(O)cc2)c(OCC=C)c1 | 85.2 µM |  |  | 
COc1cc(O)cc(O)c1C(=O)/C=C/c1ccc(Cl)cc1 | 11.2 µM | 1.7 | 19 µM | 
C=CCOc1cc(OC)c(C(=O)/C=C/c2ccccc2Br)c(OCC=C)c1 | 7.9 µM | 0.7 | 5.4 µM | 
C=CCOc1cc(OC)c(C(=O)/C=C/c2ccccn2)c(OCC=C)c1 | 1.1 µM | 11.4 | 12.5 µM | IC50 (Leishmania peruviana): 4 µM; Activity (Leishmania amazonensis [4]): 3 mm; Activity (Leishmania amazonensis [5]): 25%; IC50 (Leishmania amazonensis [6]): 0.9 µM; IC50 (Leishmania braziliensis): 1.4 µM
COc1ccc(/C=C/C(=O)c2c(O)cc(O)cc2OC)cc1 | 10 µM | 16.6 | 166 µM | IC50 (Leishmania peruviana): 23 µM; IC50 (Leishmania amazonensis [6]): 14.3 µM; IC50 (Leishmania braziliensis): 7.6 µM
MEGLUMINE ANTIMONATE |  |  |  | Activity (Leishmania amazonensis [7]): 2.1 mm; Activity (Leishmania amazonensis [8]): 100%; Activity (Leishmania amazonensis [9]): 100%
COc1ccc(/C=C/C(=O)c2c(O)cc(O)cc2OC)c(OC)c1 | 6.4 µM | >50 | > 300 µM | IC50 (Leishmania amazonensis [6]): 28.5 µM
COc1cc(O)cc(O)c1C(=O)/C=C/c1ccccc1Br | 10.6 µM | 1.4 | 14.6 µM | 
COc1cc(O)cc(O)c1C(=O)/C=C/c1ccc(F)cc1 | 11.8 µM | 2.4 | 28.8 µM | 
COc1cc(O)cc(O)c1C(=O)/C=C/c1ccco1 | 4.6 µM | 83.5 | 384 µM | IC50 (Leishmania peruviana): 34.2 µM; IC50 (Leishmania amazonensis [6]): 16.9 µM; IC50 (Leishmania braziliensis): 30.4 µM
C=CCOc1cc(OC)c(C(=O)/C=C/c2ccc(O)c(OC)c2)c(OCC=C)c1 | 107 µM |  |  | 
COc1cc(O)cc(O)c1C(=O)/C=C/c1ccc(C(F)(F)F)cc1 | 8.6 µM | 2 | 17.1 µM | 
C[C@@H]1[C@H](O)[C@@H](C)/C=C/C=C/C=C/C=C/C=C/C=C/C=C/[C@H](O[C@@H]2O[C@H](C)[C@@H](O)[C@H](N)[C@@H]2O)C[C@@H]2O[C@](O)(C[C@@H](O)C[C@@H](O)[C@H](O)CC[C@@H](O)C[C@@H](O)CC(=O)O[C@H]1C)C[C@H](O)[C@H]2C(=O)O [AMPHOTERICIN B] | 0.1 µM | 76 | 5.3 µM | IC50 (Leishmania peruviana): 0.1 µM; IC50 (Leishmania amazonensis [6]): 0.4 µM; IC50 (Leishmania braziliensis): 0.1 µM

Compound | IC50 (Leishmania amazonensis [1]) | Ratio IC50 [2] | IC50 [3] | further results
C=CCOc1cc(OC)c(C(=O)/C=C/c2ccc(F)cc2)c(OCC=C)c1 | 9.5 µM | 1.5 | 13.8 µM | 
C=CCOc1cc(OC)c(C(=O)/C=C/c2cccc(OC)c2)c(OCC=C)c1 | 8.7 µM | 1.5 | 13.1 µM | 
C=CCOc1cc(OC)c(C(=O)/C=C/c2ccc(OC)cc2)c(OCC=C)c1 | 5.5 µM | 3.4 | 18.7 µM | 
COc1ccc(/C=C/C(=O)c2c(O)cc(OC)cc2OC)cc1 [FLAVOKAWAIN A] | 17.2 µM |  |  | 
COc1cc(O)cc(O)c1C(=O)/C=C/c1ccc(C)cc1 | 7.4 µM | 2.2 | 16.5 µM | 
C=CCOc1cc(OC)c(C(=O)/C=C/c2ccc(C)cc2)c(OCC=C)c1 | 79.8 µM |  |  | 
C=CCOc1cc(OC)c(C(=O)/C=C/c2ccc(Cl)cc2)c(OCC=C)c1 | 9.4 µM | 1.4 | 13 µM | 
COc1cc(O)cc(O)c1C(=O)/C=C/C=C/c1ccccc1 | 52.6 µM |  |  | 
COc1cc(O)cc(O)c1C(=O)/C=C/c1ccc2c(c1)OCO2 | 4.1 µM | 38.3 | 157 µM | IC50 (Leishmania peruviana): 19.7 µM; IC50 (Leishmania amazonensis [6]): 16.6 µM; IC50 (Leishmania braziliensis): 8.6 µM
COc1cc(O)cc(O)c1C(=O)/C=C/c1ccc(O)cc1 [HELICHRYSETIN] | 15.7 µM | 1.4 | 21.7 µM | 
C=CCOc1cc(OC)c(C(=O)/C=C/c2ccc([N+](=O)[O-])cc2)c(OCC=C)c1 | 8.3 µM | 1.6 | 13.2 µM | 
C=CCOc1cc(OC)c(C(=O)/C=C/c2ccccc2F)c(OCC=C)c1 | 9.5 µM | 1.4 | 13.3 µM | 
C=CCOc1cc(OC)c(C(=O)/C=C/C=C/c2ccccc2)c(OCC=C)c1 | 75.2 µM |  |  | 
C=CCOc1cc(/C=C/C(=O)c2c(O)cc(O)cc2OC)cc(OCC=C)c1Br | 1.1 µM | 10.5 | 11.5 µM | Activity (Leishmania amazonensis [10]): 9%; Activity (Leishmania amazonensis [4]): 3.1 mm; Activity (Leishmania amazonensis [5]): 8%; IC50 (Leishmania amazonensis [6]): 4.1 µM; IC50 (Leishmania braziliensis): 14.4 µM
C=CCOc1cc(OC)c(C(=O)/C=C/c2ccc[nH]2)c(OCC=C)c1 | 94.3 µM |  |  | 
C=CCOc1cc(OC)c(C(=O)/C=C/c2cc(OC)c(OC)c(OC)c2)c(OCC=C)c1 | 8.2 µM | 1.5 | 12 µM | 
COc1cccc(/C=C/C(=O)c2c(O)cc(O)cc2OC)c1 | 12 µM | 1.5 | 17.6 µM | 
